According to article PMC8815882, “Screening the pandemic response box identified benzimidazole carbamates, Olorofim and ravuconazole as promising drug candidates for the treatment of eumycetoma” (PLoS Neglected Tropical Diseases, 2022):
pIC50: −log10 of the molar value. In brackets after ≈: the same amount, converted by molar mass. Read-outs that look alike come from different tables or passages of the source.

Columns and labels:
[1] = system: M. mycetomatis isolate MM55; assay: M. mycetomatis grain infection model in G. mellonella larvae, survival; type: in vivo, Galleria mellonella; design: In vivo efficacy, Larvae survival %: concentration or dose not given beside the values; settings: G. mellonella larvae infected with M. mycetomatis
[2] = system: ten different M. mycetomatis isolates; assay: MIC / MIC50 determination (XTT) in ten M. mycetomatis isolates; type: cell-based, Madurella mycetomatis
[3] = system: M. mycetomatis genome strain MM55; assay: CLSI M38-A2 based in vitro susceptibility screening (XTT or resazurin), growth at fixed concentration; type: cell-based, Madurella mycetomatis; settings: for activity at 25 µM / activity at 100 µM / Percent fungal survival at 100 µM: Madurella mycetomatis; for Percent fungal survival at 100 µM: read-out: Percentage survival at 100um, 100 uM A (second replicate column)
M. mycetomatis MM55 = assay: IC50 determination, 2-fold dilution series 16 to 0.03125 μM; type: cell-based, Madurella mycetomatis; settings: for pIC50 / IC90: Madurella mycetomatis
[4] = Madurella mycetomatis, median MIC over ten M. mycetomatis isolates, no asterisk, read-out: MIC50
[5] = Madurella mycetomatis, over the tested M. mycetomatis isolates, read-out: MIC50 mean
[6] = Madurella mycetomatis, isolate CBS247.48, read-out: MIC CBS247.48
[7] = Madurella mycetomatis, isolate MM14, read-out: MIC MM14
[8] = Madurella mycetomatis, isolate MM45, read-out: MIC MM45
[9] = Madurella mycetomatis, isolate MM55, read-out: MIC MM55
[10] = Madurella mycetomatis, isolate P1, read-out: MIC P1
[11] = Madurella mycetomatis, isolate ParijsAl1, read-out: MIC ParijsAl1
[12] = Madurella mycetomatis, isolate Peru72012, read-out: MIC Peru72012
[13] = Madurella mycetomatis, isolate So1, read-out: MIC So1
[14] = Madurella mycetomatis, isolate i1, read-out: MIC i1
[15] = Madurella mycetomatis, isolate i11, read-out: MIC i11
[16] = 25 uM, mean of three, M. mycetomatis MM55, read-out: Percentage survival at 25um, 25 uM mean
[17] = 25 uM, replicate A, M. mycetomatis MM55, read-out: Percentage survival at 25um, 25 um A
[18] = 25 uM, replicate B, M. mycetomatis MM55, read-out: Percentage survival at 25um, 25 uM B
[19] = 25 uM, replicate C, M. mycetomatis MM55, read-out: Percentage survival at 25um, 25 uM C
[20] = 100 uM, mean of three, M. mycetomatis MM55, read-out: Percentage survival at 100um, 100 uM mean
[21] = 100 uM, replicate 1, M. mycetomatis MM55, read-out: Percentage survival at 100um, 100 uM A (first replicate column)
[22] = 100 uM, replicate 2, M. mycetomatis MM55
[23] = 100 uM, replicate 3, M. mycetomatis MM55, read-out: Percentage survival at 100um, 100 uM A (third replicate column)
[24] = MM55, Table 2, M. mycetomatis MM55, read-out: IC50
[25] = MM55, mean of replicates, read-out: IC50 mean
[26] = MM55, mean of replicates, read-out: IC90 mean
[27] = MM55, replicate 1, read-out: IC50 1 um
[28] = MM55, replicate 1, read-out: IC90 1 um
[29] = MM55, replicate 2, read-out: IC50 2 um
[30] = MM55, replicate 2, read-out: IC90 2 um
[31] = MM55, replicate 3, read-out: IC50 3 um
[32] = MM55, replicate 3, read-out: IC90 3 um

## CCCCC(CC)CNC(=N)NC(=N)NCCCCCCNC(=N)NC(=N)NCC(CC)CCCC (stereo not shown) [MMV396785, Alexidine, reference compound]
[1]
  In vivo efficacy, Enhanced survival compared to control?: no
  In vivo efficacy, Larvae survival %: 2.2%
[2]; [4]
  MIC50: 2 µM (≈ 1.02 µg/mL)
[2]; [5]
  MIC50: 2 µM (≈ 1.02 µg/mL)
[2]; [6]
  MIC: 1 µM (≈ 0.509 µg/mL)
[2]; [7]
  MIC: 2 µM (≈ 1.02 µg/mL)
[2]; [8]
  MIC: 2 µM (≈ 1.02 µg/mL)
[2]; [9]
  MIC: 2 µM (≈ 1.02 µg/mL)
[2]; [10]
  MIC: 2 µM (≈ 1.02 µg/mL)
[2]; [11]
  MIC: 4 µM (≈ 2.04 µg/mL)
[2]; [12]
  MIC: 4 µM (≈ 2.04 µg/mL)
[2]; [13]
  MIC: 2 µM (≈ 1.02 µg/mL)
[2]; [14]
  MIC: 2 µM (≈ 1.02 µg/mL)
[2]; [15]
  MIC: 2 µM (≈ 1.02 µg/mL)
[3]; [16]
  activity at 25 µM: 1.02%
[3]; [17]
  activity at 25 µM: -0.617%
[3]; [18]
  activity at 25 µM: 1.64%
[3]; [19]
  activity at 25 µM: 2.05%
[3]; [20]
  activity at 100 µM: 7.33%
[3]; [21]
  activity at 100 µM: -1.99%
[3]; [22]
  Percent fungal survival at 100 µM: 7.87%
[3]; [23]
  activity at 100 µM: 16.1%
M. mycetomatis MM55; M. mycetomatis
  Drug static or cidal: Static
M. mycetomatis MM55; [24]
  pIC50: 5.59
M. mycetomatis MM55; [25]
  pIC50: 5.59
M. mycetomatis MM55; [26]
  IC90: 4.26 µM
M. mycetomatis MM55; [27]
  pIC50: 5.67
M. mycetomatis MM55; [28]
  IC90: 3.95 µM
M. mycetomatis MM55; [29]
  pIC50: 5.57
M. mycetomatis MM55; [30]
  IC90: 4.4 µM
M. mycetomatis MM55; [31]
  pIC50: 5.55
M. mycetomatis MM55; [32]
  IC90: 4.42 µM

## O=S(=O)(Nc1ccc(-n2cccc2)cc1)c1ccc(Cl)c(Cl)c1 [MMV1505642]
[2]; [4]
  MIC50: 16 µM (≈ 5.88 µg/mL)
[2]; [5]
  MIC50: 16 µM (≈ 5.88 µg/mL)
[2]; [6]
  MIC: > 16 µM
[2]; [7]
  MIC: 16 µM (≈ 5.88 µg/mL)
[2]; [8]
  MIC: 8 µM (≈ 2.94 µg/mL)
[2]; [9]
  MIC: 16 µM (≈ 5.88 µg/mL)
[2]; [10]
  MIC: 16 µM (≈ 5.88 µg/mL)
[2]; [11]
  MIC: > 16 µM
[2]; [12]
  MIC: 16 µM (≈ 5.88 µg/mL)
[2]; [13]
  MIC: > 16 µM
[2]; [14]
  MIC: 16 µM (≈ 5.88 µg/mL)
[2]; [15]
  MIC: 16 µM (≈ 5.88 µg/mL)
[3]; [16]
  activity at 25 µM: 0.829%
[3]; [17]
  activity at 25 µM: -1.91%
[3]; [18]
  activity at 25 µM: 1.17%
[3]; [19]
  activity at 25 µM: 3.22%
[3]; [20]
  activity at 100 µM: 1.07%
[3]; [21]
  activity at 100 µM: -0.332%
[3]; [22]
  Percent fungal survival at 100 µM: -0.607%
[3]; [23]
  activity at 100 µM: 4.16%
M. mycetomatis MM55; M. mycetomatis
  Drug static or cidal: Cidal
M. mycetomatis MM55; [24]
  pIC50: 5.13
M. mycetomatis MM55; [26]
  IC90: 21.8 µM
M. mycetomatis MM55; [27]
  pIC50: 5.45
M. mycetomatis MM55; [28]
  IC90: 20.3 µM
M. mycetomatis MM55; [29]
  pIC50: 5.09
M. mycetomatis MM55; [30]
  IC90: 22.6 µM
M. mycetomatis MM55; [31]
  pIC50: 4.98
M. mycetomatis MM55; [32]
  IC90: 22.6 µM

## Nc1nc(F)nc2c1ncn2[C@@H]1O[C@H](CO)[C@@H](O)[C@@H]1O [MMV637413, Fludarabine, reference compound]
[2]; [4]
  MIC50: 16 µM (≈ 4.56 µg/mL)
[2]; Madurella mycetomatis, M. mycetomatis isolate CBS247.48, read-out: MIC CBS247.48
  MIC: 16 µM (≈ 4.56 µg/mL)
[2]; Madurella mycetomatis, M. mycetomatis isolate MM14, read-out: MIC MM14
  MIC: 16 µM (≈ 4.56 µg/mL)
[2]; Madurella mycetomatis, M. mycetomatis isolate MM45, read-out: MIC MM45
  MIC: > 16 µM
[2]; Madurella mycetomatis, M. mycetomatis isolate MM55, read-out: MIC MM55
  MIC: 16 µM (≈ 4.56 µg/mL)
[2]; Madurella mycetomatis, M. mycetomatis isolate P1, read-out: MIC P1
  MIC: > 16 µM
[2]; Madurella mycetomatis, M. mycetomatis isolate ParijsAl1, read-out: MIC ParijsAl1
  MIC: > 16 µM
[2]; Madurella mycetomatis, M. mycetomatis isolate Peru72012, read-out: MIC Peru72012
  MIC: > 16 µM
[2]; Madurella mycetomatis, M. mycetomatis isolate So1, read-out: MIC So1
  MIC: 16 µM (≈ 4.56 µg/mL)
[2]; Madurella mycetomatis, M. mycetomatis isolate i1, read-out: MIC i1
  MIC: > 16 µM
[2]; Madurella mycetomatis, M. mycetomatis isolate i11, read-out: MIC i11
  MIC: 16 µM (≈ 4.56 µg/mL)
[2]; Madurella mycetomatis, over ten M. mycetomatis isolates, read-out: MIC50 mean
  MIC50: 16 µM (≈ 4.56 µg/mL)
[3]; 25 uM, replicate A, MM55, read-out: Percentage survival at 25um, 25 um A
  activity at 25 µM: 3.41%
[3]; 100 uM, mean of replicates, MM55, read-out: Percentage survival at 100um, 100 uM mean
  activity at 100 µM: 3.82%
[3]; 100 uM, replicate 1, MM55, read-out: Percentage survival at 100um, 100 uM A
  activity at 100 µM: 1.86%
[3]; 100 uM, replicate 2, MM55, read-out: Percentage survival at 100um, 100 uM A
  activity at 100 µM: 1.98%
[3]; 100 uM, replicate 3, MM55, read-out: Percentage survival at 100um, 100 uM A
  activity at 100 µM: 7.64%
[3]; read-out: Percentage survival at 25um, 25 uM B
  activity at 25 µM: -4.01%
[3]; read-out: Percentage survival at 25um, 25 uM C
  activity at 25 µM: 6.32%
[3]; read-out: Percentage survival at 25um, 25 uM mean
  activity at 25 µM: 1.91%
M. mycetomatis MM55
  Drug static or cidal: Static
M. mycetomatis MM55; [25]
  pIC50: 5.79
M. mycetomatis MM55; MM55, IC90, mean of replicates, read-out: IC90 mean
  IC90: 8.89 µM
M. mycetomatis MM55; MM55, IC90, replicate 1, read-out: IC90 1 um
  IC90: 20.6 µM
M. mycetomatis MM55; MM55, IC90, replicate 2, read-out: IC90 2 um
  IC90: 1.28 µM
M. mycetomatis MM55; MM55, IC90, replicate 3, read-out: IC90 3 um
  IC90: 4.8 µM
M. mycetomatis MM55; [27]
  pIC50: 5.74
M. mycetomatis MM55; [29]
  pIC50: 6.17
M. mycetomatis MM55; [31]
  pIC50: 5.62
M. mycetomatis MM55; Table 2, M. mycetomatis MM55, read-out: IC50
  pIC50: 5.79

## Miconazole [MMV689401, reference compound]
[2]; median MIC over ten M. mycetomatis isolates, no asterisk, read-out: MIC50
  MIC50: 0.13 µM
[2]; range of MIC over ten M. mycetomatis isolates, no asterisk
  MIC range: <0.03 to 0.25 µM
[3]
  Percentage survival at 25um, 25 uM B: 77.7759%
  Percentage survival at 25um, 25 uM C: 51.747%
  Percentage survival at 25um, 25 uM mean: 64.2303%
[3]; 25 uM, replicate A, M. mycetomatis MM55
  Percentage survival at 25um, 25 um A: 63.1681%
[3]; 100 uM, mean of three, M. mycetomatis MM55
  Percentage survival at 100um, 100 uM mean: 51.5997%
[3]; 100 uM, replicate 1, M. mycetomatis MM55
  Percentage survival at 100um, 100 uM A (first replicate column): 60.4441%
[3]; [22]
  Percentage survival at 100um, 100 uM A (second replicate column): 58.6196%
[3]; 100 uM, replicate 3, M. mycetomatis MM55
  Percentage survival at 100um, 100 uM A (third replicate column): 35.7354%

## CC(C)Oc1ccc(-c2nc(-c3cccc4c3CC[C@@H]4NCCO)no2)cc1C#N [MMV1580492]
[3]; 25 uM, mean of three replicates, read-out: Percentage survival at 25um, 25 uM mean
  activity at 25 µM: -6.9%
[3]; 25 uM, replicate A, read-out: Percentage survival at 25um, 25 um A
  activity at 25 µM: -14.6%
[3]; 25 uM, replicate B, read-out: Percentage survival at 25um, 25 uM B
  activity at 25 µM: -6.47%
[3]; 25 uM, replicate C, read-out: Percentage survival at 25um, 25 uM C
  activity at 25 µM: 0.368%
[3]; 100 uM, mean of three replicates, read-out: Percentage survival at 100um, 100 uM mean
  activity at 100 µM: 2.78%
[3]; 100 uM, replicate 1, read-out: Percentage survival at 100um, 100 uM A (first replicate column)
  activity at 100 µM: -1.25%
[3]; 100 uM, replicate 2
  Percent fungal survival at 100 µM: -2.44%
[3]; 100 uM, replicate 3, read-out: Percentage survival at 100um, 100 uM A (third replicate column)
  activity at 100 µM: 12%
M. mycetomatis MM55
  Drug static or cidal: Cidal
M. mycetomatis MM55; MM55, mean of three replicates, read-out: IC50 mean
  pIC50: < 4.60
M. mycetomatis MM55; MM55, mean of three replicates, read-out: IC90 mean
  IC90: > 25 µM
M. mycetomatis MM55; [27]
  pIC50: < 4.60
M. mycetomatis MM55; [28]
  IC90: > 25 µM
M. mycetomatis MM55; [29]
  pIC50: < 4.60
M. mycetomatis MM55; [30]
  IC90: > 25 µM
M. mycetomatis MM55; [31]
  pIC50: < 4.60
M. mycetomatis MM55; [32]
  IC90: > 25 µM
